Patent publication US20250134867A1, “METHOD FOR MODULATING LIPID METABOLISM, AMELIORATING NON-ALCOHOLIC FATTY LIVER DISEASE AND METABOLIC SYNDROME BY USING 6-METHOXYBENZOXAZOLINONE” (Taichung District Agricultural Research and Extension …, priority 2023, published 2025)

Tests used:
[1] = tested on: HFD-induced obese C57BL/6J mice; experiment: Body weight gain, food intake and food efficiency ratio in HFD-induced obese mice; format: in vivo; conditions: vs HFD group; for body weight gain: HFD mice, oral gavage 12 weeks, CX 10 and 30 mg/kg/day, EGCG 30 mg/kg/day; for food efficiency ratio (FER): 12 weeks
Excerpt: (§1) To determine the effect of CX (Sigma, Inc., USA) on obesity and non-alcoholic fatty liver disease (NAFLD) in vivo, we established an experimental approach using HFD-induced obese C57BL/6J mice. CX was suspended in 0.5% methylcellulose solution for oral administration. The animals used in the examples are described below. 5-week-old male C57BL/6J mice were purchased from The National Laboratory Animal Center, Taipei, Taiwan and were maintained in a temperature-controlled room on a 12-h light-dark cycle. They were housed with four per cage and had free access to food and drinking water. Mice fed with a standard diet and adapted to the environment for 1 week were subsequently divided randomly into five groups. The ND group (n=8) continued on the same diet, whereas the other four groups (n=8 per group) were switched to the HFD (494 kcal/100 g, 45% energy as fat; TestDiet Inc., USA). Among the four HFD groups, three groups started to receive CX at 10 mg/kg/day (CX10 group), CX at 30 mg/kg/day (CX30 group), and epigallocatechin gallate (EGCG) (Sigma, Inc., USA) at 30 mg/kg/day (EGCG30 group) by oral gavage. EGCG was suspended in 0.5% methylcellulose solution for oral administration. Food consumption and weight gain were measured daily and weekly, respectively. After 12 weeks, all mice were sacrificed. Serum samples, liver tissue, epididymis adipose tissue and feces were harvested for further analysis. The experimental protocol was approved by the Animal Research Committee of the National Yang Ming Chiao Tung University (IACUC no. 1091013), and all procedures followed The Guide for the Care and Use of Laboratory Animals (NIH publication, 85-23, revised 1996) and the guidelines of the Animal Welfare Act, Taiwan.

[2] = tested on: HFD-induced obese C57BL/6J mice; experiment: Fat deposition (eWAT) and serum lipid levels in HFD-induced obese mice; format: in vivo; conditions: 12 weeks oral; for HFD-induced increase in the mass of eWAT / serum LDL-C / serum HDL cholesterol (HDL-C) / serum total cholesterol (TC) / serum triglyceride (TG): HFD mice; for HFD-induced increase in the mass of eWAT: CX 10 and 30 mg/kg/day, EGCG 30 mg/kg/day; for serum LDL-C: calculated as (TC)-(HDL-C)-(TG/5); for serum HDL cholesterol (HDL-C) / serum total cholesterol (TC) / serum triglyceride (TG): vs HFD group; for adipocyte diameters: compared with the HFD group
Excerpt: as §1, with “The” for “To determine the effect of CX (Sigma, Inc., USA) on obesity and non-alcoholic fatty liver disease (NAFLD) in vivo, we established an experimental approach using HFD-induced obese C57BL/6J mice. CX was suspended in 0.5% methylcellulose solution for oral administration. The”, “Taiwan. The procedure regarding immunohistochemical tissue characterization is as follows. During dissection of the mice, epididymis adipose tissue and liver were isolated, weighed, and subsequently fixed in 10% paraformaldehyde in PBS. After overnight fixation, tissues were embedded in paraffin for hematoxylin and eosin (H&E) staining. All specimens were observed microscopically (Carl Zeiss Inc., Germany) at 200× magnification. […] The procedure regarding biochemical characterization is as follows. The serum triglyceride (TG), total cholesterol (TC), high-density lipoprotein-cholesterol (HDL-C), glutamic oxaloacetic transaminase (GOT), glutamic pyruvic transaminase (GPT), albumin (ALB), uric acid (UA), and creatinine (CRE) levels were measured using enzymatic assay kits with a FUJI DRI-CHEM analyzer (Fujifilm, Tokyo, Japan). The LDL-C level was calculated as [(TC)-(HDL-C)-(TG/5)].” for “Taiwan.”

HuS-E/2 cells = experiment: MTT cell viability / cytotoxicity assay; format: cell-based, human; conditions: 24 h
Procedure: To determine the cytotoxicity of CX, HuS-E/2 cells were incubated with CX at the concentrations indicated for 24 hours. The CX stock solution was 200 mM in dimethyl sulfoxide (DMSO; Cat. 15578544, J. T. Baker, USA), and stored at −20° C.
The procedure regarding cell culture of immortalized primary human hepatocytes HuS-E/2 cells is as follows. HuS-E/2 cell line, kindly provided by Dr. Shimotohno (Kyoto University, Japan), were maintained in primary hepatocyte medium (PH medium), containing 20 mM HEPES, 10% fetal bovine serum, 15 μg/mL L-proline, 0.25 μg/mL insulin, 50 nM dexamethasone, 44 mM NaHCO3, 10 mM nicotinamide, 5 ng/ml EGF, 0.1 mM Asc-2P, 100 IU/mL penicillin, 100 μg/mL streptomycin, 10 μg/mL gentamicin, and 1 μg/mL plasmocin in high-glucose Dulbeco's modified Eagle medium (DMEM). Cells were incubated at 37° C. in an incubator supplied with 5% CO2.
3-(4,5-dimethylthiazol-2-yl)-2,5-diphenyltetrazolium bromide (MTT) (Cat. M5655) (Sigma-Aldrich, USA) stock solution was 5 mg/mL in 1×phosphate-buffered saline (PBS), and stored at −20° C.
The procedure regarding cell viability is as follows. HuS-E/2 cells were seeded at 4.5×10^4 cells/well in a 96-well plate and were incubated with 0-1600 μM CX for 24 h. MTT was added to each well to a final concentration of […] and was incubated at 37° C. for an hour before removal. MTT-formazan crystals formed by metabolically viable cells were dissolved in 200 μL of DMSO for absorbance detection at 550 nm using a SPARK® Multimode microplate reader from TECAN, Switzerland. The 50% cytotoxic concentration (CC50) was calculated using the normalized response (variable slope) model given in GraphPad Prism 7.03 (USA).

Row | SMILES | body weight gain [1] | HFD-induced increase in the mass of eWAT [2] | serum LDL-C [2] | serum HDL cholesterol (HDL-C) [2] | serum total cholesterol (TC) [2] | serum triglyceride (TG) [2] | adipocyte diameters [2] | food efficiency ratio (FER) ([1]; 10 mg/kg/day oral gavage) | food efficiency ratio (FER) ([1]; 30 mg/kg/day oral gavage) | effect on the viability of HuS-E/2 cells (HuS-E/2 cells; CX at 25-400 μM, MTT) | cytotoxicity in HuS-E/2 cells (HuS-E/2 cells; CX at up to 400 μM) | CC50 (HuS-E/2 cells; HuS-E/2 cells, MTT, n=3, mean±SEM, read-out: CC50 (50% cytotoxic concentration)) [µM]
1 | O=C(O[C@@H]1Cc2c(O)cc(O)cc2O[C@@H]1c1cc(O)c(O)c(O)c1)c1cc(O)c(O)c(O)c1 [EGCG, epigallocatechin gallate, reference compound] | significantly prevented body weight gain | ameliorated | somewhat ameliorated | did not differ significantly from the HFD group | significantly lower than the HFD group | significantly lower than the HFD group | lower cell diameters and smaller cell size |  |  |  |  | 
2 | COc1ccc2[nH]c(=O)oc2c1 [CX, 6-methoxybenzoxazolinone] | significantly prevented body weight gain | ameliorated | somewhat ameliorated | did not differ significantly from the HFD group | significantly lower than the HFD group | significantly lower than the HFD group | lower cell diameters and smaller cell size | greatly reduced | greatly reduced | no significant effect | did not inflict cytotoxicity | 1430 ± 170
